Where a name gives a salt, the structure may show the parent alone.
The compounds below were run against T1, Human plasma kallikrein (Homo sapiens, UniProt P03952) (assay: In vitro inhibition of plasma kallikrein (fluorogenic substrate DPro-Phe-Arg-(Rh110)-γGlu-OH)). Conditions: human plasma kallikrein nominally 12 pM, substrate 0.5 μM, 1 hour pre-incubation at room temperature, read after 1 hour (t=60 min).
T1 construct: purchased Kordia (Leiden, Netherlands) batch HPKA 1303
Type: biochemical
Method: In Vitro Inhibition of Plasma Kallikrein
The fluorogenic substrate DPro-Phe-Arg-(Rh110)-γGlu-OH (where DPro is the amino acid d-proline, Rh110 is the fluorophore rhodamine 110 and γGlu is a […] linked to Rh110 via the gamma-carbonyl function; from Biosyntan, Berlin, Germany), being based on the chromogenic substrate described in Gallimore et al (Thromb Res 25, 293-298, 1982), was dissolved in DMSO at 5 mM and stored at −80° C. All other chemicals were of analytical grade.
Human plasma kallikrein was purchased from Kordia (Leiden, Netherlands, batch HPKA 1303) in lyophilized form.
The protein solution was reconstituted from the lyophilisate by addition of deinonized water. The resulting stock solution comprised the protein at a concentration of 0.17 mg/ml in 4 mM sodium acetate/HCl and 150 mM NaCl at pH 5.3. The stock solution was stored in aliquots at −80° C. Enzymatic reactions were conducted in ‘assay buffer’, comprising 50 mM Hepes/NaOH at pH 7.8, 150 mM NaCl, 1 mM EDTA and 0.05% (w/v) CHAPS.
Both, enzyme and substrate were diluted in assay buffer.
All protein and peptide containing solutions were handled in siliconized tubes (Life Systems Design, Merenschwand, Switzerland). The compound solutions as well as the enzyme and the substrate solutions were transferred to 384-well plates (black Cliniplate; cat. no. 95040020 Labsystems Oy, Finland) by means of a CyBi-Well 96-channel pipettor (CyBio AG, Jena, Germany). Plate measurements were conducted by the means of a Safire2 reader (TECAN, Maennedorf, Switzerland). The Safire2 is a monochomator-based instrument and wavelengths of 485 nm and 535 nm were taken for fluorescence excitation and emission acquisition, respectively. The bandwidths were set to 10 nm in both the excitation and the emission path. The fluorescence in each well was excited by three flashes per measurement.
For the determination of IC50 values, the assays were performed at room temperature in 384-well plates with a total assay volume of 25.25 μl per well.
The test compound was dissolved in 90% (v/v) DMSO/water. For the assays, […] of the 90% (v/v) DMSO/water solution or compound solution were added per well, followed by the addition of 12.5 μl protease solution (protease in assay buffer). The final assay concentration of the human plasma kallikrein was nominally 12 pM, the 11 compound concentrations in the dilution series were in the range form 1 nM to 100 μM. After 1 hour of pre-incubation at room temperature, the reactions were started by the addition of 12.5 μl substrate solution (in assay buffer, final assay concentration was 0.5 μM). After the addition of the substrate solution, the final DMSO concentration in the assay was 0.9% (v/v). The effect of the compound on the enzymatic activity was obtained from the linear part of the progress curves and determined after 1 hour (t=60 min). The IC50 value was calculated from the plot of percentage of inhibition vs. inhibitor concentration by a logistics fit according to the following equation:
where y is the %-inhibition at the inhibitor concentration, x. A1 is the lowest inhibition value, i.e. 0%, and A2 the maximum inhibition value, i.e. 100%. The exponent, p, is the Hill coefficient. The curve fitting was conducted with the non-linear regression routine of the analysis software Origin 7.5SR6 (Origin Lab Corporation).

T1 sequence (P03952 391-638 limits assumed): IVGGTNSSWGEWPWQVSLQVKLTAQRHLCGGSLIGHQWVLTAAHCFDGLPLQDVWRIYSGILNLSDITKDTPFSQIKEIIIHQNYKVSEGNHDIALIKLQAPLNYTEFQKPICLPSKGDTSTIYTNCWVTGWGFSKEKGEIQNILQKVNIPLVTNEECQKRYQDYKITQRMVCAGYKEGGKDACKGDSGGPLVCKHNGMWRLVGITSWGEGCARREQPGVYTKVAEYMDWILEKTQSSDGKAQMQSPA
T1 sequence (P03952 20-390 partner limits assumed): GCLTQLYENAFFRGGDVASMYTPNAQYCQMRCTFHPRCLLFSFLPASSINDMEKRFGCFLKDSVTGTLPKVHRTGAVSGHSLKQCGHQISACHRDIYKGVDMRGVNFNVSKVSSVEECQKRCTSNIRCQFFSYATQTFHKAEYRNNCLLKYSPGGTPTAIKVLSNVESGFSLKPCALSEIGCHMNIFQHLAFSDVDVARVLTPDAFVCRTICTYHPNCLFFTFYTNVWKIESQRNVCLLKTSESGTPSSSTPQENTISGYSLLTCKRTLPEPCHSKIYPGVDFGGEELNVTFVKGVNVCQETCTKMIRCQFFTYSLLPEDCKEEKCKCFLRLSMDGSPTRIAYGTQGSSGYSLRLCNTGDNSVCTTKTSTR

Q: How did the IC50 turn out when `COc1ccc(Cn2cc(C(=O)NCc3ccc(Cl)cc3)cn2)cc1` [N-(4-chlorobenzyl)-1-(4-methoxybenzyl)-1H-pyrazole-4-carboxamide] was run?
A: Its IC50 is > 30000 nM.

Q: For `COc1cc(C)c(CNC(=O)c2cn(Cc3ccc4nc(C)ccc4c3)nn2)c(C)n1` [N-((6-methoxy-2,4-dimethylpyridin-3-yl)methyl)-1-((2-methylquinolin-6-yl)methyl)-1H-1,2,3-triazole-4-carboxamide], which IC50 is on record?
A: The IC50 was > 30000 nM.

Q: For `O=C(NCc1n[nH]c2ccc(Cl)cc12)c1cnn(Cc2ccc(Cn3ccccc3=O)cc2)c1` [Example 15, N-((5-chloro-1H-indazol-3-yl)methyl)-1-(4-((2-oxopyridin-1(2H)-yl)methyl)benzyl)-1H-pyrazole-4-carboxamide], which IC50 is on record?
A: Its IC50 is 0.107 nM.

Q: `Cc1ccc2cc(Cn3cc(C(=O)NCc4c(C)ccnc4C)nn3)ccc2n1` [Example 1, N-((2,4-dimethylpyridin-3-yl)methyl)-1-((2-methylquinolin-6-yl)methyl)-1H-1,2,3-triazole-4-carboxamide] was tested. Which IC50 did it give?
A: Its IC50 is 10200 nM.

Q: With `Cc1ccc2cc(Cn3cc(C(=O)NCc4c(C)ccnc4C(F)(F)F)nn3)ccc2n1` [Example 6, N-((4-methyl-2-(trifluoromethyl)pyridin-3-yl)methyl)-1-((2-methylquinolin-6-yl)methyl)-1H-1,2,3-triazole-4-carboxamide] as the compound, how does the IC50 read?
A: Its IC50 is 2840 nM.

Q: How did the IC50 turn out when `Cc1ccc(CNC(=O)c2cn(Cc3ccc4nc(C)ccc4c3)nn2)c(Cl)n1` [N-((2-chloro-6-methylpyridin-3-yl)methyl)-1-((2-methylquinolin-6-yl)methyl)-1H-1,2,3-triazole-4-carboxamide] was run?
A: The IC50 was > 30000 nM.

Q: Which IC50 does the source give for `Cc1ccc2cc(Cn3cc(C(=O)NCc4c(C)cnc(O)c4C)nn3)ccc2n1` [Example 4, N-((2-hydroxy-3,5-dimethylpyridin-4-yl)methyl)-1-((2-methylquinolin-6-yl)methyl)-1H-1,2,3-triazole-4-carboxamide] here?
A: Its IC50 is 2420 nM.

Q: For `C[C@@H](NC(=O)c1cnn(Cc2ccc(Cn3cccn3)cc2)c1)c1cccc(Cl)c1` [Example 8, (R)-1-(4-((1H-pyrazol-1-yl)methyl)benzyl)-N-(1-(3-chlorophenyl)ethyl)-1H-pyrazole-4-carboxamide], which IC50 is on record?
A: Its IC50 is 1620 nM.

Q: How did the IC50 turn out when `O=C(NCc1cccc(Cl)c1F)c1cnn(Cc2ccc(Cn3cccn3)cc2)c1` [Example 27, 1-(4-((1H-pyrazol-1-yl)methyl)benzyl)-N-(3-chloro-2-fluorobenzyl)-1H-pyrazole-4-carboxamide] was run?
A: Its IC50 is 844 nM.

Q: For `Cc1ccc2cc(Cn3cc(C(=O)NCc4n[nH]c5ccc(Cl)cc45)cn3)ccc2n1` [Example 20, N-((5-chloro-1H-indazol-3-yl)methyl)-1-((2-methylquinolin-6-yl)methyl)-1H-pyrazole-4-carboxamide], which IC50 is on record?
A: Its IC50 is 10.9 nM.

Q: With `COc1cc(Cn2cc(C(=O)NCc3n[nH]c4ccc(Cl)cc34)cn2)cc(OC)c1` [Example 25, N-((5-chloro-1H-indazol-3-yl)methyl)-1-(3,5-dimethoxybenzyl)-1H-pyrazole-4-carboxamide] as the compound, how does the IC50 read?
A: The IC50 was 312 nM.

Q: `Cc1ccc2cc(Cn3cc(C(=O)NCc4ncc(N)nc4C)nn3)ccc2n1` [Example 13, N-((5-amino-3-methylpyrazin-2-yl)methyl)-1-((2-methylquinolin-6-yl)methyl)-1H-1,2,3-triazole-4-carboxamide] was tested. Which IC50 did it give?
A: Its IC50 is 784 nM.

Q: How did the IC50 turn out when `N=C(N)c1ccc(CNC(=O)c2cnn(Cc3ccc4ccccc4c3)c2)cc1` [Example 9, N-(4-carbamimidoylbenzyl)-1-(naphthalen-2-ylmethyl)-1H-pyrazole-4-carboxamide hydrochloride] was run?
A: The IC50 was 0.292 nM.

Q: With `O=C(NCc1n[nH]c2ccc(Cl)cc12)c1cnn(Cc2ccc(CN3CCOC3=O)cc2)c1` [Example 19, N-((5-chloro-1H-indazol-3-yl)methyl)-1-(4-((2-oxooxazolidin-3-yl)methyl)benzyl)-1H-pyrazole-4-carboxamide] as the compound, how does the IC50 read?
A: Its IC50 is 9.1 nM.

Q: With `Cc1cnc2[nH]cc(CNC(=O)c3cn(Cc4ccc5nc(C)ccc5c4)nn3)c2c1` [Example 5, N-((5-methyl-1H-pyrrolo[2,3-b]pyridin-3-yl)methyl)-1-((2-methylquinolin-6-yl)methyl)-1H-1,2,3-triazole-4-carboxamide] as the compound, how does the IC50 read?
A: The IC50 was 2920 nM.

Q: With `N=C(N)c1ccc(CNC(=O)c2cnn(Cc3ccc(Cn4cccn4)cc3)c2)cc1` [Example 10, 1-(4-((1H-pyrazol-1-yl)methyl)benzyl)-N-(4-carbamimidoylbenzyl)-1H-pyrazole-4-carboxamide hydrochloride] as the compound, how does the IC50 read?
A: The IC50 was 0.878 nM.

Q: How did the IC50 turn out when `O=C(NCc1c[nH]c2ccc(Cl)cc12)c1cnn(Cc2ccc(Cn3ccccc3=O)cc2)c1` [Example 16, N-((5-chloro-1H-indol-3-yl)methyl)-1-(4-((2-oxopyridin-1(2H)-yl)methyl)benzyl)-1H-pyrazole-4-carboxamide] was run?
A: The IC50 was 0.328 nM.

Q: How did the IC50 turn out when `O=C(NCc1c[nH]c2ccc(Cl)cc12)c1cnn(Cc2ccc(CN3CCOC3=O)cc2)c1` [Example 22, N-((5-chloro-1H-indol-3-yl)methyl)-1-(4-((2-oxooxazolidin-3-yl)methyl)benzyl)-1H-pyrazole-4-carboxamide] was run?
A: The IC50 was 60 nM.

Q: How did the IC50 turn out when `C[C@@H](NC(=O)c1cnn(Cc2ccc(Cn3cccn3)cc2)c1)c1cccc(Cl)c1F` [Example 28, (R)-1-(4-((1H-pyrazol-1-yl)methyl)benzyl)-N-(1-(3-chloro-2-fluorophenyl)ethyl)-1H-pyrazole-4-carboxamide] was run?
A: Its IC50 is 27200 nM.

Q: How did the IC50 turn out when `O=C(NCc1cccc(Cl)c1)c1cnn(Cc2ccc(Cn3cccn3)cc2)c1` [Example 7, 1-(4-((1H-pyrazol-1-yl)methyl)benzyl)-N-(3-chlorobenzyl)-1H-pyrazole-4-carboxamide] was run?
A: The IC50 was 1310 nM.

Q: How did the IC50 turn out when `Cc1ccc2cc(Cn3cc(C(=O)NCc4c[nH]c5ccc(Cl)cc45)cn3)ccc2n1` [Example 12, N-((5-chloro-1H-indol-3-yl)methyl)-1-((2-methylquinolin-6-yl)methyl)-1H-pyrazole-4-carboxamide] was run?
A: Its IC50 is 24.3 nM.

Q: Which IC50 does the source give for `O=C(NCc1n[nH]c2ccc(Cl)cc12)c1cnn(Cc2ccc(Cn3cccn3)cc2)c1` [Example 17, 1-(4-((1H-pyrazol-1-yl)methyl)benzyl)-N-((5-chloro-1H-indazol-3-yl)methyl)-1H-pyrazole-4-carboxamide] here?
A: Its IC50 is 0.554 nM.

Q: For `O=C(NCc1c[nH]c2ccc(Cl)cc12)c1cnn(Cc2ccc(S(=O)(=O)n3cccc3)cc2)c1` [Example 23, 1-(4-((1H-pyrrol-1-yl)sulfonyl)benzyl)-N-((5-chloro-1H-indol-3-yl)methyl)-1H-pyrazole-4-carboxamide], which IC50 is on record?
A: The IC50 was 134 nM.

Q: With `COc1ccnc(C)c1CNC(=O)c1cn(Cc2ccc3nc(C)ccc3c2)nn1` [Example 2, N-((4-methoxy-2-methylpyridin-3-yl)methyl)-1-((2-methylquinolin-6-yl)methyl)-1H-1,2,3-triazole-4-carboxamide] as the compound, how does the IC50 read?
A: The IC50 was 3600 nM.

Q: How did the IC50 turn out when `Cc1ccc2cc(Cn3cc(C(=O)NCc4c(C)cc(O)nc4C)nn3)ccc2n1` [Example 3, N-((6-hydroxy-2,4-dimethylpyridin-3-yl)methyl)-1-((2-methylquinolin-6-yl)methyl)-1H-1,2,3-triazole-4-carboxamide] was run?
A: Its IC50 is 573 nM.

Q: How did the IC50 turn out when `COc1ccc(Cl)c(CNC(=O)c2cn(Cc3ccc4nc(C)ccc4c3)nn2)c1F` [Example 14, N-(6-chloro-2-fluoro-3-methoxybenzyl)-1-((2-methylquinolin-6-yl)methyl)-1H-1,2,3-triazole-4-carboxamide] was run?
A: Its IC50 is 42 nM.

Q: Which IC50 does the source give for `COc1cccc(Cn2cc(C(=O)NCc3ccc(Cl)cc3)cn2)c1` [N-(4-chlorobenzyl)-1-(3-methoxybenzyl)-1H-pyrazole-4-carboxamide] here?
A: Its IC50 is > 30000 nM.

Q: `O=C(NCc1n[nH]c2ccc(Cl)cc12)c1cnn(Cc2ccc(S(=O)(=O)n3cccc3)cc2)c1` [Example 21, 1-(4-((1H-pyrrol-1-yl)sulfonyl)benzyl)-N-((5-chloro-1H-indazol-3-yl)methyl)-1H-pyrazole-4-carboxamide] was tested. Which IC50 did it give?
A: Its IC50 is 46.4 nM.

Q: Which IC50 does the source give for `O=C(NCc1c[nH]c2ccc(Cl)cc12)c1cnn(Cc2ccc(Cn3cccn3)cc2)c1` [Example 18, 1-(4-((1H-pyrazol-1-yl)methyl)benzyl)-N-((5-chloro-1H-indol-3-yl)methyl)-1H-pyrazole-4-carboxamide] here?
A: The IC50 was 4.39 nM.

Reference: patent US20140378474A1, “5-membered heteroarylcarboxamide derivatives as plasma kallikrein inhibitors” (NOVARTIS AG, priority 2012, published 2014)
